“Also recorded” adds a separate entry of the source.
Columns and labels:
neuronal MN9D cell line = assay: BDNF secretion via in situ ELISA; type: cell-based; details: 10 μM, 24 hrs, MN9D cells; normalized to maximal response of 10 μM 4-PPBP; mean ± SEM; asterisk = significantly different from 4-PPBP
Excerpt: Measuring BDNF secretion via in situ ELISA. […] The in situ ELISA improves on traditional ELISA by seeding BDNF-secreting cells directly into the wells pre-coated with an anti-BDNF primary antibody. BDNF secreted by these cells is immediately captured by the primary antibody, drastically increasing the sensitivity and reproducibility of the ELISA assay. Intact cells are removed […] the addition of the secondary and tertiary antibodies. The amount of BDNF secreted from the neuronal MN9D cells was quantified using an in situ ELISA assay developed using the BDNF EMAX® ImmunoAssay kit (Cat. No. G7611, Promega, Madison, WI). Briefly, a NUNC™ MAXISORP™ flat-bottom, polystyrene, 96-well immunoplate was coated for 48 hrs at 4° C. with an anti-BDNF monoclonal antibody diluted 1:1000 v/v in carbonate buffer containing 25 mM sodium bicarbonate and 25 mM sodium carbonate, pH 9.7. Unbound antibody was removed by washing 5 times with 150 μL of TBST buffer (20 mM Tris-HCl, pH7.6, 150 mM NaCl, and 0.05% (v/v) TWEEN® 20), before blocking non-specific sites first with blocking buffer for 1 hr and then with culture medium for 2 hrs. Cells were seeded at 35,000 cells per well and incubated overnight at 37° C. in a humidified CO2 incubator. The following day, the wells were replaced with fresh culture media containing either experimental compounds or vehicle controls, then incubated for an additional 24 hours. In addition, on the same plate, but in separate wells, BDNF standards were added ranging in concentration from 15.6-250 pg/mL. After 24 hrs incubation with experimental compounds, the media was aspirated and 100 μL of Dulbecco's phosphate saline (D-PBS without Ca^2+ and Mg^2+ supplemented with 5 mM EDTA) was added to each well and incubated for 15 min at 37° C. to promote cell lifting. Cells were then detached from the bottom of wells by triturating in the center and around the edges of the well. After removing all cell debris, the wells were rinsed five times with 150 μL of TBST. The plate was then incubated with 1:500 v/v diluted polyclonal anti-human BDNF antibody for 2 hrs at room temperature. This antibody was removed, and wells were washed five times with 150 μL of TBST, before incubating with 1:200 v/v diluted polyclonal Anti-IgY HRP conjugate for 2 hrs at room temperature. Wells were then washed five times with 150 μL of TBST and the remaining specifically bound polyclonal antibody was detected with the 50 μL colorimetric HRP substrate 3,3′,5,5′-Tetramethylbenzidine (TMB). The reaction was terminated with 50 μL of 1 M HCl and the color intensity was quantified by measuring the absorbance at 450 nm using a FLEXSTATION® 3 plate reader (Molecular Devices, Sunnyvale, CA). […] A one-way ANOVA with a Bonferroni multiple comparisons post-hoc analysis (P<0.05) was applied to determine significant differences between groups.
Further, BDNF secreted from MN9D cells can be detected 24 hours after treatment with S1R ligand, whereas BDNF secreted from the B104 cell line takes 7 days to be detected (Fujimoto, et al., 2012).
An in situ ELISA approach was utilized because of its improved sensitivity related to its rapid capture of secreted BDNF (Balkowiec & Katz, 2000; Dalwadi, et al., 2017). […] Values are averages of 2-10 experiments±SEM, and each experiment was performed in triplicate. Statistical significance at P<0.05 was determined by ANOVA followed by a Bonferroni's post-hoc test and are marked with an asterisk.

[1] = system: rat model of focal cerebral ischemia (tMCAO); assay: Infarct and inflammation after tMCAO (TTC, Nissl, GFAP, Iba1); type: in vivo; details: for infarct size by TTC staining: 24 hours after a single dose administered 48 hours after tMCAO
Method: Assessment of infarct and inflammation. For immunohistochemical assessments 6 random animals were chosen from each group by a treatment-blinded observer to reduce the chance of bias. Nissl staining was performed using thionin. Rats were deeply anesthetized with isoflurane and transcardially perfused with saline and 4% formaldehyde. Brains were removed and post fixed for 48 hours. Coronal sections were made at […] through the region of the middle cerebral artery, affixed to gelatin-coated glass slides and stained. Four sections representing Bregma levels ˜0.7, 0.2, −0.8, and −2.12 were assessed for each animal. Sections were scanned with a 4× objective using a Keyence BZ-X800 microscope and analyzed using Image J. Infarct assessment was performed by a treatment blinded observer two separate times and the average infarct was assessed by determining the extent of histologically healthy tissue using the method of Swanson (Swanson et al., 1990).
The inflammatory response to stroke was observed using immunohistochemistry for glial fibrillary acidic protein (GFAP, Neomarkers RB-087, 1:5000) to assess astrogliosis and ionized calcium binding adapter molecule 1 (Iba1 Fujifilm Wako #019-19741, 1:5000), followed by a biotinylated secondary antibody (Jackson Immuno Research #711-065-152, 1:400). […] Area of staining the striatum, cortex, and dorsal hippocampus was assessed by a treatment-blinded observer using wide-field images captured with a 4× objective using a Keyence BZ-X800. The percent area above threshold was determined with Image J. Images were processed by a treatment-blinded observer using ImageJ by converting images to 8 bits, manually outlining the areas of interest using the corpus callosum to define the boundaries of the striatum and cortex, subtracting background and subjecting the images to auto thresholding. When more than one staining run was required to process tissue, the mean gray values of a standard ROI in the contralateral cortex were used to normalize between the runs.
Rats were sacrificed under isoflurane anesthesia 2, 6, or 24 hours after dosing, and brains were removed to assess protein expression in the ischemic and contralateral cortex by immunoblotting. Brains were rapidly removed, chilled for 2 min in ice-cold saline, and sliced into 2 mm coronal slices with a brain matrix for rapid 2,3,5 triphenyltetrazolium chloride (TTC) staining. Sections were immersed in 1% TTC for 1 minute at room temperature to reveal the extent of the infarct. Cortical penumbra tissue was collected, snap frozen, and stored at −80° C. for subsequent western blotting. Protein was extracted from tissue using T-PER™ reagent with HALT protease inhibitor (Thermo-Pierce), and concentrations were determined with the PIERCE® BCA assay (Thermo-Pierce). Protein was separated on 4-20% SDS-PAGE gels (BioRad) and transferred to nitrocellulose. Blots were probed with primary antibodies for BDNF (Abcam ab226842; 1:1000) and goat anti-rabbit-HRP secondary (Thermo 32260; 1:10,000). Bands were visualized by ECL with PIERCE® SUPERSIGNAL® West Dura Femto (Thermo-Pierce) reagent using a UVP EpiChemi3. Density was assessed with Image J and normalized to β-actin (Thermo MA1-91399; 1:1000).

[2] = treatment starting 48 hours after tMCAO, 14-15 days after tMCAO, vs vehicle

CCN(CC)CCOCCOC(=O)C(CC)(CC)c1ccccc1 [Oxeladin]
Efficacy of BDNF secretion (neuronal MN9D cell line): 0.55 ± 0.04
infarct extent / loss of healthy brain tissue by Nissl staining ([1]; 14-15 days after tMCAO, whole hemisphere, cortex and striatum, vs Vehicle, P<0.05): significantly reduced infarct extent
infarct size by TTC staining [1]: No difference in infarct size
infarct size by TTC staining ([1]; listed as oxeladin): No significant difference in infarct size
astrogliosis (GFAP staining) [1, 2]: no differences between vehicle and oxeladin treated groups; also recorded: did not alter astrogliosis
microgliosis (Iba1 staining) [1, 2]: no differences observed

— US20250134902A1, “DRUG REPURPOSING FOR DELAYED TREATMENT OF ISCHEMIC STROKE” (UNIVESRITY OF NORTH TEXAS HEALTH SCIENCE CENTER, priority 2022, published 2025)
